# Entries after “also recorded” stand apart in the source; their conditions may differ. Structures can show the parent of a compound that is named as a salt.
# Key:
# [1] = tested on: hindpaw of WT and DKO mice; experiment: Plasma extravasation, Evans blue assay; type: in vivo, mouse; conditions: for Paw swelling and plasma extravasation (images): injected (left) compared to uninjected (right) paw, WT and DKO mice
# Method: (§1) Mice were anesthetized using isoflurane. 200 μl of Evans Blue dye was injected into the mouse’s tail vein. 15 mins later, one hindpaw was injected with an algogen. After a further 30 min, the volume of each paw was measured by displacement using a plethysmometer (Ugo Basile). Both paws were then cut at the ankle and placed in tubes in the oven at 55 °C for 24 hr to dry. 1 ml of formamide was then added to each paw and incubated for 4-6 days at 55 °C to extract the dye from the paw tissue. 50 μl samples of dye-infused formamide from each paw were then dispensed to a 96-well plate in duplicate, along with a range of Evans blue dilutions in formamide to generate a standard curve. The optical density of each sample was then measured using a plate-reader, and the concentration of Evans Blue per paw sample interpolated from the standard curve to generate an index of extravasation in that paw.
# [2] = tested on: hindpaw of WT and DKO mice; experiment: Hindpaw swelling (edema), plethysmometer; type: in vivo, mouse; conditions: for Swelling of the hindpaw, DKO versus WT: observation after injection of CFA, PGE2, AITC or capsaicin
# Method: as §1
# [3] = tested on: WT and Tac1::Calca DKO mice; experiment: AITC-evoked licking; type: in vivo, mouse; conditions: 1% AITC in saline, 20 µl intraplantar; 5 min; WT n=12, DKO n=12
# Method: (§2) 0.3% capsaicin in 80% saline / 10% Tween-80 /10% ethanol or 1% AITC in saline was injected into the plantar surface of the hind paw. The injected volume for both was 20 µl. Mice were video-taped for 5 min. A blinded observer scored the amount of time in seconds the mouse spent licking the injected paw in a 5-min time period.
# [4] = tested on: WT and Tac1::Calca DKO mice; experiment: Conditioned taste aversion; type: in vivo, mouse; conditions: LiCl 200 mg/kg; saccharin 15 mM; WT n=7, DKO n=6
# Method: Mice were single-housed and habituated for 3 days to drink from two glass bottles with stainless-steel ball-bearing spouts. Mice then received 3 days of training, where they were water-deprived for 22 hr followed by 30 min exposure to a single water-containing bottle, then 90 min exposure to both bottles. On the conditioning day, after 22 hr of water deprivation, mice were exposed to a single bottle containing saccharin water (15 mM) for 45 min. Mice were then injected with lithium chloride (200 mg/kg) or PBS, and then given ordinary water for 75 min. The animals were then water deprived for a further 22 hr. On the test day, mice were simultaneously exposed to a bottle containing water and a bottle containing saccharin for 45 min. The volume of each solution consumed was measured by weighing the bottles before and after. To calculate the saccharin preference index of each animal, the volume of saccharin consumed was divided by the total of fluid consumed, with a value less than 0.5 indicating the development of an aversion to saccharin.
# [5] = tested on: WT and Tac1::Calca DKO mice; experiment: Inflammatory mechanical hypersensitivity (von Frey); type: in vivo, mouse; conditions: PGE2 20 μl, 500 nM intraplantar; up to 120 min; WT n=6, DKO n=6
# Method: Punctate mechanical sensitivity was measured using the up-down method of Chaplan to obtain a 50% withdrawal threshold ([Chaplan et al., 1994]). Mice were habituated on a mesh wire stand for 1 hr. A 0.16 g Von Frey hair was applied to the plantar region of the paw for 2 s. A response was recorded when the mouse swiftly lifted its paw in response to the stimulus. […] To calculate the 50% withdrawal threshold, five responses surrounding the 50% threshold were obtained after the first change in response. The pattern of responses was used to calculate the 50% threshold = (10[χ+κδ]/10,000), where χ is the log of the final von Frey filament used, κ=tabular value for the pattern of responses and δ the mean difference between filaments used in log units. The log of the 50% threshold was used to calculate summary and test statistics.
# (§3) CFA and PGE2 was purchased from Sigma. 20 μl of CFA was injected into the heel of the hind paw. PGE2 (20 μl, 500 nM) was injected into the plantar surface of the hindpaw, and behavior was assessed over the same time-frame that produces in vivo sensitization of nociceptor responses (up to 120 min). Inflammation-induced hypersensitivity was measured using the Hargreaves and the von Frey, as described above.
# [6] = tested on: WT and Tac1::Calca DKO mice; experiment: Inflammatory heat hypersensitivity (Hargreaves); type: in vivo, mouse; conditions: PGE2 20 μl, 500 nM intraplantar; up to 120 min; WT n=10, DKO n=10
# Method: The radiant heat stimulus was aimed for the centre of the plantar region of the mouse’s hind paw. The active intensity of the low stimulus was 40 intensity units, and of the high stimulus 55. The response latency was recorded for five trials with 10 min breaks in between each trial.
# as §3
# [7] = tested on: WT and Tac1::Calca DKO mice; conditions: 0.6% acetic acid, intraperitoneal, 10 μl/g; 15 min from 5 min after injection; WT n=9, DKO n=7
# Method: Mice were habituated on a plexiglass stand for 1 hr. 0.6% of acetic acid was injected intraperitoneally at a dose of 10 μl/g weight of the animal. Mice were videotaped for 20 min. The number of writhes was quantified post-hoc by a blinded observer during a 15-min interval between 5 and 20 min after injection.
# [8] = tested on: WT and Tac1::Calca DKO mice; experiment: Capsaicin-evoked licking; type: in vivo, mouse; conditions: 0.3% capsaicin, 20 µl intraplantar, 5 min
# Method: as §2
# [9] = tested on: Substance P receptor (NKR1) in Substance P-sniffer HEK293 cells co-cultured with DRG neurons; experiment: Co-culture of DRG neurons and Substance P-sniffer cells (Substance P release); type: cell-based, mouse; conditions: capsaicin 10 μM
# [10] = tested on: dorsal horn of WT and DKO mice; experiment: Capsaicin-evoked dorsal horn Fos staining; type: in vivo, mouse; conditions: capsaicin 0.3% hindpaw; WT n=5, DKO n=4
# Method: […]. After 1 week, mice were habituated then the stimulation was performed. For capsaicin-evoked dorsal horn Fos, capsaicin (0.3%) was injected into the right hindpaw of mice in chambers on a plexiglass stand. For Fos elicited by dynamic allodynia stimulation, mice that received a spared nerve injury procedure 3 weeks prior were stimulated with a paint brush while housed on a wire mesh stand (3x10 min stimulation period, with 1-min rest every 10 min). Note that for SNI experiments, the CTB was injected into the contralateral paw, because severing two branches of the sciatic nerve would have prevented efficient CTB transit in the ipsilateral paw. The mice were perfused as above and spinal cords were harvested 75–120 min after stimulation. The sections were incubated in a blocking buffer (5% goat serum; 0.1% Triton X-100; PBS) for 3 hr at room temperature on a shaker. The sections were incubated in 1:1000 rabbit anti Fos primary antibody (Cell Signaling Technology, Phospho-c-Fos (Ser32) (D82C12) XP Rabbit mAb, #5348) at room temperature overnight. […] This ensured Fos activity was measured only in those sections strongly innervated by the hindpaw. The number of Fos-positive nuclei in the dorsal horn were quantified in ImageJ/FIJI software (National Institute of Health) by a blinded observer using a semi-automated procedure. […]
# [11] = tested on: CGRP receptor (Calcrl and Ramp1) in CGRP-sniffer HEK293 cells co-cultured with DRG neurons; experiment: Co-culture of DRG neurons and CGRP-sniffer cells (CGRP release); type: cell-based, mouse
# [12] = tested on: WT and Tac1::Calca DKO mice; experiment: Chloroquine-induced itch; type: in vivo, mouse; conditions: chloroquine 20 μl of 25 μM intradermal, nape of neck; 15 min; WT n=8, DKO n=11
# Method: Hair from the nape of the mouse’s neck was removed 2–3 days prior to behavioral experiments using VEET hair removal cream and the area thoroughly washed and moisturizing cream applied. Mice were habituated to transparent acrylic chambers (10cm x 10cm x 13 cm) 30 min prior to injection. Post habituation, a blinded investigator injected 20 μl of 25 μM Chloroquine diphosphate salt (Sigma-Aldrich: C6628) solution in 0.9% saline intradermally into the nape of the neck using a 31 G insulin syringe. Videos were quantified by a separate blinded investigator with a scratching bout counted each time the mouse attended to the injected area with the hind paw after the paw was removed from the floor or mouth.
# [13] = tested on: WT and Tac1::Calca DKO mice; conditions: background statement on oxaliplatin; ref MacDonald et al., 2021; cited from earlier work
# From the text: Lastly, we investigated how dual peptide deletion affected the development of allodynia symptoms, where innocuous stimuli are perceived as painful, in two mouse models of neuropathic pain ([Jensen and Finnerup, 2014]).
# [14] = tested on: WT and Tac1::Calca DKO mice; experiment: Oxaliplatin cold allodynia, Cold Plate; type: in vivo, mouse; conditions: intraplantar oxaliplatin, one day after treatment, Cold Plate at 10 °C, 5 min
# From the text: The plate was set to the desired temperature. A camera set up with a mirror was used for better visibility of the mouse on the hot plate. A clear cylindrical tube was placed around the hot plate to ensure the mouse cannot escape. Once the hot plate reached the set temperature, the mouse was placed on the hot plate and the top of the cylinder was covered. At the cut-off time, the mouse was taken off the hot plate and placed back in the cage. The latency to lick was scored post-hoc using the recorded videos by a blinded observer.
# Chemotherapy-induced neuropathy was induced in mice by intraplantar injection of oxaliplatin into the left hind paw ([Deuis et al., 2013]; [MacDonald et al., 2021]). Oxaliplatin was made up to a dose of 80 µg in 40 µl of 5% glucose solution, due to its instability in chloride-containing saline solution. The number of nocifensive behaviors in 5 min was assessed on the Cold Plate held at 10 °C 24 hr later.
smiles,measurement,setting,value
"C=CCN=C=S [AITC, allyl isothiocyanate]",Paw swelling and plasma extravasation (images),[1],both WT and DKO mice show paw swelling and plasma extravasation
same,"Swelling of the hindpaw, DKO versus WT",[2],provoked swelling of the hindpaw of DKO mice to a similar extent as WT mice
same,Licking behavior after AITC,[3],evoked similar licking behavior to capsaicin that was unaffected by peptide deletion
"[Cl-].[Li+] [LiCl, lithium chloride]",Conditioned taste aversion to saccharin,[4],pronounced aversion to the usually-preferred saccharin; also recorded: strong and indistinguishable conditioned taste aversion in both WT and DKO mice
"CCCCC[C@H](O)/C=C/[C@H]1[C@H](O)CC(=O)[C@@H]1C/C=C\CCCC(=O)O [PGE2, Prostaglandin E2]","Swelling of the hindpaw, DKO versus WT",[2],provoked swelling of the hindpaw of DKO mice to a similar extent as WT mice
same,"Mechanical hypersensitivity, von Frey",[5],short-lasting heat and mechanical hypersensitivity to a similar extent in both WT and DKO mice
same,"Heat hypersensitivity, Hargreaves",[6],short-lasting heat and mechanical hypersensitivity to a similar extent in both WT and DKO mice
CC(=O)O [acetic acid],Writhing behavior,[7],comparable writhing behavior in both WT and DKO mice
COc1cc(CNC(=O)CCCC/C=C/C(C)C)ccc1O [capsaicin],Licking responses after capsaicin,"[8]; WT n=9, DKO n=8",evoked coping-like licking responses in both genotypes
same,"Licking, difference WT versus DKO after capsaicin",[8]; unpaired t-test,differences did not reach statistical significance
same,Plasma extravasation,"[1]; capsaicin injection, Evans blue optical density normalized to uninjected paw, WT n=9, DKO n=7",plasma extravasation was intact in DKO mice
same,Paw swelling and plasma extravasation (images),[1],both WT and DKO mice show paw swelling and plasma extravasation
same,Substance P-sniffer GCaMP response evoked by capsaicin,[9]; DKO DRG neurons,no Substance P-sniffer cell responses
same,Substance P-sniffer GCaMP6s fluorescence,"[9]; WT versus DKO DRG co-culture, n=12 wells from 2 mice per genotype","increase in Substance P-sniffer GCaMP6s fluorescence when cultured with DRGs from WT, but not DKO, mice"
same,Substance P-sniffer GCaMP response evoked by capsaicin,[9]; control (WT) DRG neurons,robust GCaMP responses
same,Capsaicin-evoked dorsal horn Fos expression,[10],No differences in dorsal horn Fos expression were observed
same,"Paw swelling by volume, WT versus DKO","[2]; capsaicin injection, 30 min, normalized to uninjected paw, WT n=9, DKO n=7",no appreciable differences in capsaicin-induced swelling between WT and DKO mice
same,"Swelling of the hindpaw, DKO versus WT",[2],provoked swelling of the hindpaw of DKO mice to a similar extent as WT mice
same,CGRP-sniffer activity evoked by DKO neurons,"[11]; capsaicin application, DKO DRG neurons",markedly reduced activity
same,CGRP-sniffer calcium response evoked by capsaicin,"[11]; capsaicin application, WT DRG neurons",strong increases in calcium
same,CGRP-sniffer GCaMP6s fluorescence,"[11]; capsaicin, WT versus DKO DRG co-culture, n=18 wells from 3 mice per genotype","increase in CGRP-sniffer GCaMP6s fluorescence when cultured with DRGs from WT, but not DKO, mice"
"CCN(CC)CCCC(C)Nc1ccnc2cc(Cl)ccc12 (stereo not drawn) [chloroquine, Chloroquine diphosphate salt]",Scratching,[12],DKO mice scratched robustly
O=C1[O][Pt]2([NH][C@@H]3CCCC[C@H]3[NH]2)[O]C1=O [oxaliplatin],Cold allodynia evoked by oxaliplatin,[13],evokes extreme cold allodynia
same,Pain-like behaviors on Cold Plate,[14],both DKO and WT animals displayed pronounced pain-like behaviors
